pIC50: −log10 of the molar value. Blank lines part the entries; values can stand above or below the compound they belong to.
Tests used:
[1] = molecular target: T1, Monoglyceride lipase (Mus musculus, UniProt O35678); assay: Inhibition of mouse MAGL using 2-AG as substrate incubated for 30 mins
T1 sequence (O35678 whole entry): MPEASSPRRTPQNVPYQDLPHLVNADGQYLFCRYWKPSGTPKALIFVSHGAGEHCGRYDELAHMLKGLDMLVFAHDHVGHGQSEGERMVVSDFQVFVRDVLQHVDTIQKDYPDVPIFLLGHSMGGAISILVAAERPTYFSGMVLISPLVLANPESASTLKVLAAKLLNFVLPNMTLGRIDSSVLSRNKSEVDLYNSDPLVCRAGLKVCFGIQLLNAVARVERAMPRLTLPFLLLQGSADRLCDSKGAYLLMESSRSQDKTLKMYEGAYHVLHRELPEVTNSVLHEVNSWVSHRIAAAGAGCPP

[2] = Distribution coefficient between 1-octanol and phosphate buffer, logD of the compound after 15 mins by shake flask assay; format: physicochemical; conditions: 1-octanol/phosphate buffer
[3] = Drug uptake in Wistar rat brain striatum at 2 nM incubated for 30 mins by autoradiography; format: ADME, tissue-based; conditions: 0.5 h, 0.002 µM
[4] = Drug uptake in Wistar rat brain Hippocampus at 2 nM incubated for 30 mins by autoradiography; format: ADME, tissue-based; conditions: 0.5 h, 0.002 µM
[5] = Drug uptake in Wistar rat brain Cortex at 2 nM incubated for 30 mins by autoradiography; format: ADME, tissue-based; conditions: 0.5 h, 0.002 µM
[6] = Drug uptake in Wistar rat brain Thalamus at 2 nM incubated for 30 mins by autoradiography; format: ADME, tissue-based; conditions: 0.5 h, 0.002 µM
[7] = Drug uptake in Wistar rat brain Cerebellum at 2 nM incubated for 30 mins by autoradiography; format: ADME, tissue-based; conditions: 0.5 h, 0.002 µM
[8] = Drug uptake in Wistar rat brain striatum at 5 nM incubated for 30 mins by autoradiography; format: ADME, tissue-based; conditions: 0.5 h, 0.005 µM
[9] = Drug uptake in Wistar rat brain Hippocampus at 5 nM incubated for 30 mins by autoradiography; format: ADME, tissue-based; conditions: 0.5 h, 0.005 µM
[10] = Drug uptake in Wistar rat brain Cortex at 5 nM incubated for 30 mins by autoradiography; format: ADME, tissue-based; conditions: 0.5 h, 0.005 µM
[11] = Drug uptake in Wistar rat brain Thalamus at 5 nM incubated for 30 mins by autoradiography; format: ADME, tissue-based; conditions: 0.5 h, 0.005 µM
[12] = Drug uptake in Wistar rat brain Cerebellum at 5 nM incubated for 30 mins by autoradiography; format: ADME, tissue-based; conditions: 0.5 h, 0.005 µM
[13] = Drug uptake in Wistar rat brain incubated for 30 mins in presence of SAR127303 by autoradiography; format: ADME, tissue-based; conditions: 0.5 h
[14] = Drug uptake in Wistar rat brain incubated for 30 mins in presence of PF-06809247 by autoradiography; format: ADME, tissue-based; conditions: 0.5 h
[15] = Drug uptake in MAGL knockout mouse brain incubated for 30 mins by autoradiography relative to control; format: ADME, tissue-based; conditions: 0.5 h
[16] = Drug uptake in […] mouse brain incubated for 30 mins by autoradiography; format: ADME, tissue-based; conditions: 0.5 h
[17] = Drug uptake in C57BL/6 mouse brain at 4.41 to 6.8 nmol/kg, iv and measured after 1 min post infection by PET imaging anlaysis; format: ADME, organism-based; conditions: in vivo, dose 4.41-6.8 nmol/kg
[18] = Metabolic stability in C57BL/6 mouse brain assessed as remaining parent compound 46.50 to 49.39 MBq, iv and measured after 90 mins post injection by radio-UPLC analysis; format: ADME, organism-based; conditions: dose 46.5-49.39 MBq, read-out: Stability
[19] = Drug uptake in wild type mouse brain at 0.74 at 4.94 nmol/kg, iv and measured after 1 min post infection by PET imaging anlaysis; format: ADME, organism-based; conditions: in vivo
[20] = Inhibition of Cynomolgus monkey MAGL using 2-AG as substrate incubated for 30 mins; parameters: species or system Macaca fascicularis
[21] = Stability in mouse serum at 37 degC for 2 hrs by UPLC analysis; format: ADME, cell-free; conditions: read-out: Stability
[22] = Stability in human serum at 37 degC for 2 hrs by UPLC analysis; format: ADME, cell-free; conditions: read-out: Stability
[23] = Protein binding in human plasma assessed as free plasma concentration incubated for 10 mins by ultracentrifugation; format: ADME, cell-free
[24] = Protein binding in mouse plasma assessed as free plasma concentration incubated for 10 mins by ultracentrifugation; format: ADME, cell-free
[25] = Clearance in human liver microsomes by LC/MS analysis; format: ADME, Microsome; conditions: read-out: CLH
[26] = Clearance in mouse liver microsomes by LC/MS analysis; format: ADME, Microsome; conditions: read-out: CLH
[27] = Drug metabolism in C57BL/6 mouse brain assessed as intact parent compound at 46.50 to 49.39 MBq, iv and measured after 20 mins post injection by radio-UPLC analysis; format: ADME, organism-based; conditions: dose 46.5-49.39 MBq, read-out: Stability
[28] = Drug metabolism in C57BL/6 mouse brain assessed as intact parent compound at 46.50 to 49.39 MBq, iv and measured after 40 mins post injection by radio-UPLC analysis; format: ADME, organism-based; conditions: dose 46.5-49.39 MBq, read-out: Stability
[29] = Drug metabolism in C57BL/6 mouse brain assessed as intact parent compound 46.50 to 49.39 MBq, iv and measured after 60 mins post injection by radio-UPLC analysis; format: ADME, organism-based; conditions: dose 46.5-49.39 MBq, read-out: Stability

SMILES: O=C1CC(N2CCN(c3ncccn3)CC2)CN1c1cccc(-c2cccnc2F)c1 (stereo unspecified)
pIC50 [1]: 6.52

SMILES: O=C(c1ccco1)N1CCN(C2CC(=O)N(c3ccc(N4CC[C@@H](F)C4)cc3)C2)CC1 (stereo partly specified)
pIC50 [1]: 5.97

SMILES: O=C1CC(N2CCN(c3ncccn3)CC2)CN1c1cccc(-c2ccc(F)nc2)c1 (stereo unspecified)
pIC50 [1]: 5.68

SMILES: O=C(c1ccco1)N1CCN(C2CC(=O)N(c3cccc(N4CC[C@@H](F)C4)c3)C2)CC1 (stereo partly specified)
pIC50 [1]: 5.53

SMILES: COc1ccccc1-c1cccc(N2CC(N3CCN(c4ncccn4)CC3)CC2=O)c1 (stereo unspecified)
pIC50 [1]: 7.07

SMILES: O=C1CC(N2CCN(c3ncccn3)CC2)CN1c1cccc(N2CC[C@H](F)C2)c1 (stereo partly specified)
pIC50 [1]: 5.03

SMILES: O=C1CC(N2CCN(c3ncccn3)CC2)CN1c1cccc(N2CC[C@@H](F)C2)c1 (stereo partly specified)
pIC50 [1]: 4.97

SMILES: O=C(c1ccco1)N1CCN([C@H]2CC(=O)N(c3ccc(-c4ccc(F)cc4)cc3)C2)CC1
pIC50 [1]: 6.86

SMILES: O=C(c1ccco1)N1CCN(C2CC(=O)N(c3ccc(-c4ccc(F)nc4)cc3)C2)CC1 (stereo unspecified)
pIC50 [1]: 6.90

Now those with a higher pIC50 [1], led by results:

pIC50 [1]: 7.89
SMILES: O=C(c1ccco1)N1CCN(C2CC(=O)N(c3ccc(-c4ccc(F)cc4)cc3)C2)CC1 (stereo unspecified)

pIC50 [1]: 7.10
SMILES: O=C1CC(N2CCN(c3ncccn3)CC2)CN1c1ccc(N2CC[C@H](F)C2)cc1 (stereo partly specified)

pIC50 [1]: 7.39
SMILES: O=C(c1ccco1)N1CCN(C2CC(=O)N(c3cccc(-c4cccc(F)c4)c3)C2)CC1 (stereo unspecified)

pIC50 [1]: 7.41
SMILES: COc1cccc(-c2cccc(N3CC(N4CCN(c5ncccn5)CC4)CC3=O)c2)c1 (stereo unspecified)

pIC50 [1]: 7.82
logD at 0.25 h [2]: 2.31
Drug uptake [3]: Active
Drug uptake [4]: Active
Drug uptake [5]: Active
Drug uptake [6]: Active
Drug uptake [7]: Active
Drug uptake [8]: Active
Drug uptake [9]: Active
Drug uptake [10]: Active
Drug uptake [11]: Active
Drug uptake [12]: Active
Drug uptake [13]: 41%
Drug uptake [14]: 41%
Drug uptake [15]: 54%
Drug uptake [16]: Not Active
SUV [17]: 0.6
SMILES: COc1cccc(-c2cccc(N3CC(N4CCN(C(=O)c5ccco5)CC4)CC3=O)c2)c1 (stereo unspecified)

pIC50 [1]: 7.43
SMILES: O=C(c1ccco1)N1CCN(C2CC(=O)N(c3ccc(-c4ccccc4F)cc3)C2)CC1 (stereo unspecified)

pIC50 [1]: 7.89
remaining at 1.5 h [18]: 73%
SMILES: Cc1ccnc(F)c1-c1cccc(N2C[C@H](N3CCN(C(=O)c4nccs4)CC3)CC2=O)c1

pIC50 [1]: 7.70
SMILES: COc1cccc(-c2ccc(N3CC(N4CCN(c5ncccn5)CC4)CC3=O)cc2)c1 (stereo unspecified)

pIC50 [1]: 8.05
logD at 0.25 h [2]: 2.24
Drug uptake [3]: Active
Drug uptake [4]: Active
Drug uptake [5]: Active
Drug uptake [6]: Active
Drug uptake [7]: Active
Drug uptake [8]: Active
Drug uptake [9]: Active
Drug uptake [10]: Active
Drug uptake [11]: Active
Drug uptake [12]: Active
Drug uptake [13]: 41%
Drug uptake [14]: 41%
Drug uptake [15]: 41%
Drug uptake [16]: Not Active
SUV [19]: 1.2
SMILES: COc1cccc(-c2ccc(N3CC(N4CCN(C(=O)c5ccco5)CC4)CC3=O)cc2)c1 (stereo unspecified)

pIC50 [1]: 7.52
SMILES: COc1ccccc1-c1ccc(N2CC(N3CCN(C(=O)c4ccco4)CC3)CC2=O)cc1 (stereo unspecified)

pIC50 [1]: 8.10
logD at 0.25 h [2]: 2.37
pIC50 [20]: 7.85
remaining at 2 h [21]: > 95%
remaining at 2 h [22]: > 95%
fraction unbound at 10 min [23]: 0.12
fraction unbound at 10 min [24]: 0.24
microsomal CLint [25]: 21 µL/min/mg
microsomal CLint [26]: 124 µL/min/mg
remaining at 20 min [27]: 95%
remaining at 40 min [28]: 70%
remaining at 1 h [29]: 68%
SUV [17]: 1.63
SMILES: O=C(c1ccco1)N1CCN([C@@H]2CC(=O)N(c3ccc(-c4ccc(F)cc4)cc3)C2)CC1

pIC50 [1]: 7.14
SMILES: COc1ccccc1-c1ccc(N2CC(N3CCN(c4ncccn4)CC3)CC2=O)cc1 (stereo unspecified)

From ChEMBL document CHEMBL5042536, “Development of High Brain-Penetrant and Reversible Monoacylglycerol Lipase PET Tracers for Neuroimaging” (J Med Chem, 2022)
